Assay [1] has as its target T1, Alpha-1A adrenergic receptor (Homo sapiens, UniProt P35348).
T1 sequence (P35348 whole entry): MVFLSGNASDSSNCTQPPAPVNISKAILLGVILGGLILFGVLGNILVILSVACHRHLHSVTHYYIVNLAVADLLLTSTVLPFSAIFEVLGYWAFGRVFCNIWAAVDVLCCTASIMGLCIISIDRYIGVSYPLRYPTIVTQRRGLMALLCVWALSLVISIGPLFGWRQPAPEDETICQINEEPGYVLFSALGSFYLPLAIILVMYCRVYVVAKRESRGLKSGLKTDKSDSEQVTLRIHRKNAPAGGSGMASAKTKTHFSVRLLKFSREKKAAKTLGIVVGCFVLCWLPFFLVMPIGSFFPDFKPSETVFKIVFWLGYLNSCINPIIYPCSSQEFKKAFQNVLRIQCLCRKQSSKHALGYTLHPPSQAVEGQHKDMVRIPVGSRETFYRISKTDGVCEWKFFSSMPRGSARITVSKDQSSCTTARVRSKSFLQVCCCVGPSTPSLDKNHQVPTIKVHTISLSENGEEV
In words: Binding affinity to human alpha1A adrenergic receptor transfected in COS1 cells assessed as compound required to occupy 50% of receptor. The class given is cell-based, COS-1.

The target in assay [2] is T2, Alpha-1D adrenergic receptor (Homo sapiens, UniProt P25100).
T2 sequence (P25100 whole entry): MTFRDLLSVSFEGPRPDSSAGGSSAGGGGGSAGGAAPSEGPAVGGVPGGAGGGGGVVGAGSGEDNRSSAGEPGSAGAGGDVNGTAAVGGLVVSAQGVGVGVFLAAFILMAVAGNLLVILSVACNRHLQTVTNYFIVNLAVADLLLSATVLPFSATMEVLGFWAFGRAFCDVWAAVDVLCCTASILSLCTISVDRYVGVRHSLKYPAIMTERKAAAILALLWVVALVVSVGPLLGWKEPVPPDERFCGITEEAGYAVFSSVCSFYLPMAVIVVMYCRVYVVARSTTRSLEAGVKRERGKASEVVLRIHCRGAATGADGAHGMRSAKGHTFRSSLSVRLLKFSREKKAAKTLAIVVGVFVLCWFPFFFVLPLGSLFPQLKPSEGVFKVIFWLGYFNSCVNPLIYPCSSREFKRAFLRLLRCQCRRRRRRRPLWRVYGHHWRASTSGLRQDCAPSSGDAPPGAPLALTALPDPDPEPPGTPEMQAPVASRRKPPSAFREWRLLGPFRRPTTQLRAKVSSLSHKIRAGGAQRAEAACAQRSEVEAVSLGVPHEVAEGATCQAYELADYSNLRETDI
Kind of assay: Displacement of [3H]-prazosin from human alpha1D adrenergic receptor transfected in COS1 cells. The class given is cell-based, COS-1. In general terms: Loss of bound radioactivity is the signal in a displacement assay; it reports binding, not function.

The target in assay [3] is T3, 5-hydroxytryptamine receptor 1A (Homo sapiens, UniProt P08908).
T3 sequence (P08908 whole entry): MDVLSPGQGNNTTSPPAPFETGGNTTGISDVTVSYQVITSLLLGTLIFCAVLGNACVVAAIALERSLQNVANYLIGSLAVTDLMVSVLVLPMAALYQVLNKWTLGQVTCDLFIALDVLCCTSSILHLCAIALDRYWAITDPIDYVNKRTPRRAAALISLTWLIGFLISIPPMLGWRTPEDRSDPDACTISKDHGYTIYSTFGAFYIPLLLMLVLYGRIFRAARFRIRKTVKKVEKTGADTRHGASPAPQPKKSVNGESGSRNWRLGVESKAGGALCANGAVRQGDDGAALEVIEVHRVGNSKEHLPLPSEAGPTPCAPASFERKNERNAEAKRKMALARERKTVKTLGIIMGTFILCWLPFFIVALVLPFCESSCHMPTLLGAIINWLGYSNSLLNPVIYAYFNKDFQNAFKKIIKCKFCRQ
In words: Binding affinity to human 5HT1A receptor transfected in COS1 cells assessed as compound required to occupy 50% of receptor. The assay is classed as cell-based, COS-1.

The target in assay [4] is T4, Alpha-1B adrenergic receptor (Homo sapiens, UniProt P35368).
T4 sequence (P35368 whole entry): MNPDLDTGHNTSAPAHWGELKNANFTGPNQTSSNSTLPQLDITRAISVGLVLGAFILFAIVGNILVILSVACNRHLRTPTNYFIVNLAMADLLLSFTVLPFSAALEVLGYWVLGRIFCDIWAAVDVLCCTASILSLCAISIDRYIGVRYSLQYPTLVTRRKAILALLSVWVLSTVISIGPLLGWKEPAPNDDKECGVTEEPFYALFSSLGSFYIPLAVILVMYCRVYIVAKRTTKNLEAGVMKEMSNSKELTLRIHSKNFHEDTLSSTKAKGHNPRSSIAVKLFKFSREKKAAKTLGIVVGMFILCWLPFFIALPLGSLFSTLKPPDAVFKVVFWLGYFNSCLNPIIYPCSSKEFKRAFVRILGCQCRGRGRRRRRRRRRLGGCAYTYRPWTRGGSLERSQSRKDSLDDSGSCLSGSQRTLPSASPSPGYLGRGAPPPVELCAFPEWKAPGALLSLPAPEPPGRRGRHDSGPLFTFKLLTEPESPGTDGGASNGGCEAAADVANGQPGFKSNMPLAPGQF
In words: Displacement of [3H]-prazosin from human alpha1B adrenergic receptor transfected in COS1 cells. The class given is cell-based, COS-1.

The target of assay [5] is T2, Alpha-1D adrenergic receptor. In words: Binding affinity to human alpha1D adrenergic receptor transfected in COS1 cells assessed as compound required to occupy 50% of receptor. The class given is cell-based, COS-1.
The target of assay [6] is T4, Alpha-1B adrenergic receptor. Kind of assay: Binding affinity to human alpha1B adrenergic receptor transfected in COS1 cells assessed as compound required to occupy 50% of receptor. The class given is cell-based, COS-1.
Assay [7] deals with T1, Alpha-1A adrenergic receptor. Kind of assay: Displacement of [3H]-prazosin from human alpha1A adrenergic receptor transfected in COS1 cells. The class given is cell-based, COS-1.
The target of assay [8] is T3, 5-hydroxytryptamine receptor 1A. In words: Displacement of [3H]8-OH-DPAT from human 5HT1A receptor transfected in COS1 cells. The class given is cell-based, COS-1.
Assay [9] is filed under the species Homo sapiens. Kind of assay: Selectivity ratio of Ki for human 5HT1A receptor to Ki for human alpha1A adrenergic receptor.
The species entered for assay [10] is Homo sapiens. In words: Selectivity ratio of Ki for human alpha1D adrenergic receptor to Ki for human alpha1A adrenergic receptor.
The species entered for assay [11] is Homo sapiens. Kind of assay: Selectivity ratio of Ki for human alpha1B adrenergic receptor to Ki for human alpha1A adrenergic receptor.

In the case of `c1ccc2c(NCCNc3ccnc4ccccc34)ccnc2c1`, the Ki (in general, the dissociation constant of the complex between target and ligand, obtained from inhibition or displacement) in assay [1] was 26 nM; in assay [2], 331 nM; in assay [3] it was 2290 nM; in assay [4], 28.2 nM; in assay [5], 331 nM; in assay [6], 28 nM. The Ki in [7] is 26.3 nM; in [8], 2290 nM.

For the compound `COc1ccc2c(NCCNc3ccnc4cc(OC)ccc34)ccnc2c1`, the Ki was 69 nM in assay [1]; 214 nM in [2]; 891 nM in assay [3]; 50.1 nM in [4]; 214 nM in assay [5]; 50 nM in assay [6]. For the same compound, the Ki in assay [7] was 69.2 nM; in [8] it was 891 nM.

As to `Cc1ccc2c(NCCCCCCCNc3ccnc4cc(C)ccc34)ccnc2c1`, the Ki in assay [1] was 112 nM; in [2], 490 nM; in assay [3] it was 1260 nM; in assay [4], 51.3 nM; in assay [5], 490 nM; in assay [6], 51 nM. Also, the Ki in [7] is 112 nM; in assay [8], 1260 nM.

`COc1ccc2nccc(NCCCCCCCNc3ccnc4ccc(OC)cc34)c2c1`: the Ki was 316 nM in assay [1]; 372 nM in assay [2]; 1380 nM in [3]; 148 nM in [4]; 372 nM in assay [5]; 148 nM in assay [6]. Further, the Ki was 316 nM in [7] and 1380 nM in [8].

`Cc1ccc2nccc(NCCCCCCCNc3ccnc4ccc(C)cc34)c2c1`: the Ki in assay [1] is 617 nM; in assay [2], 479 nM; in assay [3], 1100 nM; in assay [4], 151 nM; in [5], 479 nM; in assay [6] it was 151 nM. Also, the Ki in [7] was 617 nM; in [8], 1100 nM.

Consider `Cc1cccc2c(NCCNc3ccnc4c(C)cccc34)ccnc12`, for which the Ki was 7 nM in assay [1]; 479 nM in assay [2]; 1170 nM in assay [3]; 39.8 nM in assay [4]; 479 nM in [5]; 40 nM in assay [6]. Also, the Ki is 7.41 nM in assay [7] and 1170 nM in assay [8]. The Ratio Ki is 168 in the assay listed under Homo sapiens [9], 68 in the assay listed under Homo sapiens [10] and 6 in the assay filed under Homo sapiens [11].

`Cc1ccc2c(NCCNc3ccnc4cc(C)ccc34)ccnc2c1`: the Ki was 120 nM in assay [1]; 204 nM in assay [2]; 3470 nM in assay [3]; 47.9 nM in [4]; 204 nM in [5]; 48 nM in [6]. The Ki in assay [7] is 120 nM; in [8], 3470 nM.

`c1ccc2c(NCCCCCCCNc3ccnc4ccccc34)ccnc2c1`: the inhibition constant (Ki) is 126 nM in assay [1]; 309 nM in assay [2]; 832 nM in assay [3]; 148 nM in assay [4]; 309 nM in [5]; 148 nM in [6]. Moreover, the results for the Ki in assay [7] and in assay [8] were 126 nM and 832 nM, respectively.

Take `COc1cccc2c(NCCNc3ccnc4c(OC)cccc34)ccnc12`: the Ki in assay [1] was 195 nM; in [2], 2000 nM; in [3] it was 3090 nM; in [4], 324 nM; in assay [5], 2000 nM; in [6], 324 nM. The Ki in assay [7] was 195 nM; in [8], 3090 nM.

In the case of `COc1ccc2c(NCCCCCCCNc3ccnc4cc(OC)ccc34)ccnc2c1`, the Ki was 257 nM in assay [1]; 229 nM in [2]; 2820 nM in assay [3]; 34.7 nM in assay [4]; 229 nM in [5]; 35 nM in assay [6]. Besides, the Ki in assay [7] was 257 nM; in [8], 2820 nM.

In the case of `COc1cccc2c(NCCCCCCCNc3ccnc4c(OC)cccc34)ccnc12`, the Ki was 74 nM in [1]; 759 nM in assay [2]; 603 nM in [3]; 155 nM in assay [4]; 759 nM in [5]; 155 nM in assay [6]. Besides, the results for the Ki in assay [7] and in [8] were 74.1 nM and 603 nM, respectively.

`Cc1ccc2nccc(NCCNc3ccnc4ccc(C)cc34)c2c1`: the Ki in assay [1] was 135 nM; in assay [2] it was 490 nM; in assay [3], 617 nM; in assay [4] it was 19.1 nM; in assay [5], 490 nM; in [6] it was 19 nM. The Ki in assay [7] is 135 nM; in assay [8] it was 617 nM.

Values taken from ChEMBL document CHEMBL3351724, “Human α1-adrenoceptor subtype selectivity of substituted homobivalent 4-aminoquinolines” (Bioorg Med Chem, 2014).
